Where a name gives a salt, the structure may show the parent alone. Where only a bound is given, the exact number is not on record here.

In assay [1] the test system is E. coli RNase P RNA, M1 RNA. The experiment in a line: Inhibition of bacterial RNase P activity, IC50 determination (cleavage of pATSerUG by M1 RNA). The settings on record: NI: No inhibition. The assay is classed as biochemical.
Assay [2] concerns Staphylococcus aureus (ATCC25923). The experiment in a line: MIC, broth microdilution (CLSI), Staphylococcus aureus ATCC25923. Conditions: Staphylococcus aureus, ATCC25923, read-out: S. aureus ATCC 25923 MIC.
Assay [3] deals with Escherichia coli (ATCC25922). Put plainly: MIC, broth microdilution (CLSI), Escherichia coli. Conditions: Escherichia coli, ATCC25922, read-out: E. coli ATCC 25922 MIC, Table XIII. (In general: Broth dilution looks for growth in wells or tubes with falling amounts of substance.)

As usually defined, the IC50 is the concentration at which inhibition is half-maximal. As a reminder, the MIC is the lowest concentration that inhibits growth of the organism. `Cc1cccc(C(CC(=O)NC2CCNCC2)c2cn(CC3CCC(F)(F)CC3)c3ccc(Br)cc23)c1.Cl` (stereo not drawn) [Compound 287, 3-(5-bromo-1-((4,4-difluorocyclohexyl)methyl)-1H-indol-3-yl)-N-(piperidin-4-yl)-3-(m-tolyl)propanamide hydrochloride salt] registered an IC50 in assay [1] of 15 µM. Also, the MIC in assay [2] was 10 µg/mL; in assay [3], 78 µg/mL.
For `Cc1cccc(C(CC(=O)NCCC2CCNCC2)c2cn(CC3CCCCC3)c3ccc(F)cc23)c1.Cl` (stereo not drawn) [Compound 119, 3-(1-(cyclohexylmethyl)-5-fluoro-1H-indol-3-yl)-N-(2-(piperidin-4-yl)ethyl)-3-(m-tolyl)propanamide hydrochloride salt], in that order: 19 µM, 8 µg/mL and 32 µg/mL.
On the same counts, the results for `Cc1cccc(C(CC(=O)NC2CCC(N)CC2)c2cn(CC34CC5CC(CC(C5)C3)C4)c3ccccc23)c1.Cl` [Compound 223, 3-(1-(((1S,3S)-adamantan-1-yl)methyl)-1H-indol-3-yl)-N-((1s,4s)-4-aminocyclohexyl)-3-(m-tolyl)propanamide hydrochloride salt] are 8 µM, 2 µg/mL and more than 512 µg/mL.
The molecule `Cc1cccc(C(CC(=O)N[C@H]2CC[C@H](N)CC2)c2cn(CC3CCCC3)c3ccccc23)c1.Cl` (stereo partly drawn) [Compound 111, N-((1R,4R)-4-aminocyclohexyl)-3-(1-(cyclopentylmethyl)-1H-indol-3-yl)-3-(m-tolyl)propanamide hydrochloride salt] returned an IC50 in assay [1] of 6.8 µM. In addition, the MIC in assay [2] stood at 4 µg/mL; in assay [3], 32 µg/mL.
On the same counts, the results for `Cc1cccc(C(CC(=O)N[C@H]2CC[C@H](N)CC2)c2cn(C(C)C)c3ccccc23)c1.Cl` (stereo partly drawn) [Compound 154, N-((1R,4R)-4-aminocyclohexyl)-3-(1-isopropyl-1H-indol-3-yl)-3-(m-tolyl)propanamide hydrochloride salt] are 1230 µM, 128 µg/mL and 256 µg/mL.
Consider `N[C@H]1CC[C@H](NC2CCC(c3cn(CC4CCCCC4)c4ccc(Br)cc34)CC2)CC1` (single isomer, unassigned) [Compound 265, (1r,4r)-N1-(4-(5-bromo-1-(cyclohexylmethyl)-1H-indol-3-yl)cyclohexyl)cyclohexane-1,4-diamine hydrochloride salt], for which the IC50 in assay [1] (hydrochloride salt) was 15 µM. For the same molecule, the MIC in assay [2] and in assay [3] was 2 µg/mL each time.
In assay [1], `Cc1cccc(C(CCN[C@H]2CC[C@H](O)CC2)c2cn(CC3CCCCC3)c3ccccc23)c1.Cl` (stereo partly drawn) [Compound 218, (1R,4R)-4-((3-(1-(cyclohexylmethyl)-1H-indol-3-yl)-3-(m-tolyl)propyl)amino) cyclohexan-1-ol hydrochloride salt] displayed an IC50 of 45 µM. The MIC in assay [2] was 8 µg/mL; in assay [3] it was more than 512 µg/mL.
For `Cc1cccc(C(CC(=O)N(C)C2CCNCC2)c2cn(CC3CCCCC3)c3ccccc23)c1.Cl` (stereo not drawn) [Compound 279, 3-(1-(cyclohexylmethyl)-1H-indol-3-yl)-N-methyl-N-(piperidin-4-yl)-3-(m-tolyl)propanamide hydrochloride salt], the IC50 in assay [1] is 34 µM. The MIC in assay [2] was 8 µg/mL; in assay [3] it was 65 µg/mL.
`Cl.O=C(CCc1cn(CC2CCC(F)(F)CC2)c2ccc(Br)cc12)NC1CCNCC1` [Compound 286, 3-(5-bromo-1-((4,4-difluorocyclohexyl)methyl)-1H-indol-3-yl)-N-(piperidin-4-yl)propanamide hydrochloride salt] gave a concentration for half-maximal inhibition (IC50) in assay [1] of 164 µM. Moreover, the figures for the MIC in assay [2] and in assay [3] were 66 µg/mL and 133 µg/mL, respectively.
For `NC1CCC(NCCC(c2cc(Cl)cc(Cl)c2)c2cn(CC3CCCCC3)c3ccccc23)CC1` [Compound 171, (1S,4S)-N1-(3-(1-(cyclohexylmethyl)-1H-indol-3-yl)-3-(3,5-dichlorophenyl)propyl) cyclohexane-1,4-diamine hydrochloride salt], in that order: 12 µM, 2 µg/mL and 5 µg/mL.
On the same counts, the results for `Cl.N[C@H]1CC[C@H](NC(=O)CCc2cc3ccccc3n2CC2CCCCC2)CC1` [Compound 276, N-((1R,4R)-4-aminocyclohexyl)-3-(1-(cyclohexylmethyl)-1H-indol-2-yl)propanamide hydrochloride salt] are 43 µM, 54 µg/mL and 54 µg/mL.
As for `Cc1cccc(C(CC(=O)NC2CCC(N)CC2)c2cn(CC3CCCCC3)c3ccc(C4=CCNCC4)cc23)c1` [Compound 228, N-((1S,4S)-4-aminocyclohexyl)-3-(1-(cyclohexylmethyl)-5-(1,2,3,6-tetrahydropyridin-4-yl)-1H-indol-3-yl)-3-(m-tolyl)propanamide hydrochloride salt], the IC50 in assay [1] is 57 µM. The MIC was determined as 10 µg/mL in assay [2] and 40 µg/mL in assay [3].
On the same counts, the results for `Cc1cccc(C(CC(=O)NC2CCNCC2)c2cn(CC3CCC(F)(F)CC3)c3ccccc23)c1.Cl` (stereo not drawn) [Compound 282, 3-(1-((4,4-difluorocyclohexyl)methyl)-1H-indol-3-yl)-N-(piperidin-4-yl)-3-(m-tolyl)propanamide hydrochloride salt] are 71 µM, 34 µg/mL and 136 µg/mL.
On the same counts, the results for `CC(C)C(CC(=O)N[C@H]1CC[C@H](N)CC1)c1cn(CC2CCCCC2)c2ccccc12.Cl` (stereo partly drawn) [Compound 131, N-((1R,4R)-4-aminocyclohexyl)-3-(1-(cyclohexylmethyl)-1H-indol-3-yl)-4-methylpentanamide hydrochloride salt] are 93 µM, 32 µg/mL and 128 µg/mL.
On the same counts, the results for `Cc1cccc(C(CC(=O)NC2CCNCC2)c2cn(CC3CC3)c3ccccc23)c1.Cl` (stereo not drawn) [Compound 123, 3-(1-(cyclopropylmethyl)-1H-indol-3-yl)-N-(piperidin-4-yl)-3-(m-tolyl)propanamide hydrochloride salt] are 389 µM, 64 µg/mL and 256 µg/mL.
Turning to `Cl.NC1CCC(NC(=O)CCc2cn(CC3CCCCC3)c3ccc(-c4ccccc4Cl)cc23)CC1` [Compound 239, N-((1S,4S)-4-aminocyclohexyl)-3-(5-(2-chlorophenyl)-1-(cyclohexylmethyl)-1H-indol-3-yl)propanamide hydrochloride salt], in assay [1], the IC50 worked out at 2.9 µM. The MIC in assay [2] is 4 µg/mL; in assay [3], 271 µg/mL.
Take `COc1cccc(C(CC(=O)N[C@H]2CC[C@@H](N)CC2)c2cn(Cc3ccccc3)c3ccccc23)c1.Cl` (stereo partly drawn) [Compound 66, N-((1S,4S)-4-aminocyclohexyl)-3-(1-benzyl-1H-indol-3-yl)-3-(3-methoxyphenyl) propanamide hydrochloride salt]: in assay [1], the IC50 is 195 µM. Besides, the MIC in assay [2] stood at 33 µg/mL; in assay [3], 133 µg/mL.
In assay [1], `Cc1cccc(C(CC(=O)N[C@H]2CC[C@H](N)CC2)c2cn(CC3CC3)c3ccccc23)c1.Cl` (stereo partly drawn) [Compound 124, N-((1R,4R)-4-aminocyclohexyl)-3-(1-(cyclopropylmethyl)-1H-indol-3-yl)-3-(m-tolyl)propanamide hydrochloride salt] had an IC50 of 149 µM. The MIC in assay [2] was determined as 128 µg/mL; in assay [3], 256 µg/mL.
In assay [1], `N[C@H]1CC[C@H](NC(=O)CC(c2cn(CC3CCCCC3)c3ccccc23)C2CCNCC2)CC1` (stereo partly drawn) [Compound 107, N-((1r,4r)-4-aminocyclohexyl)-3-(1-(cyclohexylmethyl)-1H-indol-3-yl)-3-(piperidin-4-yl)propanamide hydrochloride salt] returned an IC50 of 1330 µM. Besides, the results for the MIC in assay [2] and in assay [3] were 512 µg/mL and more than 512 µg/mL, respectively.
For `NC1CCC(NCCc2cn(CC3CCCCC3)c3ccc(-c4ccccc4OC(F)(F)F)cc23)CC1` [Compound 241, (1S,4S)-N1-(2-(1-(cyclohexylmethyl)-5-(2-(trifluoromethoxy)phenyl)-1H-indol-3-yl)ethyl)cyclohexane-1,4-diamine hydrochloride salt], in that order: 25 µM, 2 µg/mL and 5 µg/mL.
On the same counts, the results for `Cc1cccc(-c2ccc3c(c2)c(C(=O)N[C@H]2CC[C@H](N)CC2)cn3CC2CCCCC2)c1.Cl` [Compound 269, N-((1r,4r)-4-aminocyclohexyl)-1-(cyclohexylmethyl)-5-(m-tolyl)-1H-indole-3-carboxamide hydrochloride salt] are 29 µM, 8 µg/mL and more than 512 µg/mL.
As for `COc1ccccc1-c1ccc2c(c1)c(C(CCN[C@H]1CC[C@H](N)CC1)c1cccc(C)c1)cn2CC1CCCCC1` (stereo partly drawn) [Compound 229, (1R,4R)-N1-(3-(1-(cyclohexylmethyl)-5-(2-methoxyphenyl)-1H-indol-3-yl)-3-(m-tolyl)propyl)cyclohexane-1,4-diamine hydrochloride salt], the IC50 in assay [1] was 5.4 µM. Also, the MIC in assay [2] came out at 3 µg/mL; in assay [3] it was 20 µg/mL.
Take `Cc1cccc(C(CC(=O)NC2CCC(N)CC2)c2c(C)n(CC3CCCCC3)c3ccccc23)c1.Cl` [Compound 243, N-((1S,4S)-4-aminocyclohexyl)-3-(1-(cyclohexylmethyl)-2-methyl-1H-indol-3-yl)-3-(m-tolyl)propanamide hydrochloride salt]: in assay [1], the IC50 was 35 µM. The MIC in assay [2] was 17 µg/mL; in assay [3], more than 512 µg/mL.
`Cc1cccc(C(CC(=O)N[C@H]2CCCC[C@@H]2N)c2cn(CC3CCCCC3)c3ccccc23)c1.Cl` (stereo partly drawn) [Compound 189, N-((1S,2S)-2-aminocyclohexyl)-3-(1-(cyclohexylmethyl)-1H-indol-3-yl)-3-(m-tolyl)propanamide hydrochloride salt] came in with an IC50 in assay [1] of 16 µM. Also, the MIC was 16 µg/mL in assay [2] and more than 512 µg/mL in assay [3].

These data come from US20210246115A1 (Bioimics AB, priority 2017, published 2021).
